# According to ChEMBL document CHEMBL3045319, “Synthesis, antitumor activity, and structureactivity relationship of some 4H-pyrano[3,2-h]quinoline and 7H-pyrimido[4,5:6,5]pyrano[3,2-h]quinoline derivatives” (Med Chem Res, 2013):
# Experiments:
# [1] = Cytotoxicity against Homo sapiens (human) HCT cells assessed as cell viability at 50 ug/ml after 48 hr by MTT assay relative to control; format: functional; conditions: read-out: Activity
# [2] = tested on: HepG2; test: Cytotoxicity against Homo sapiens (human) HepG2 cells assessed as cell viability at 1.56 ug/ml after 48 hr by MTT assay relative to control; format: functional; conditions: HepG2, 48 h, read-out: Activity
# [3] = tested on: MCF7; test: Cytotoxicity against Homo sapiens (human) MCF7 cells assessed as cell viability at 6.25 ug/ml after 48 hr by MTT assay relative to control; format: functional; conditions: MCF7, 48 h, read-out: Activity
# [4] = tested on: HepG2; test: Cytotoxicity against Homo sapiens (human) HepG2 cells assessed as cell viability at 12.5 ug/ml after 48 hr by MTT assay relative to control; format: functional; conditions: HepG2, 48 h, read-out: Activity
# [5] = Cytotoxicity against Homo sapiens (human) HCT cells assessed as cell viability at 25 ug/ml after 48 hr by MTT assay relative to control; format: functional; conditions: read-out: Activity
# [6] = tested on: MCF7; test: Cytotoxicity against Homo sapiens (human) MCF7 cells assessed as cell viability at 1.56 ug/ml after 48 hr by MTT assay relative to control; format: functional; conditions: MCF7, 48 h, read-out: Activity
# [7] = tested on: MCF7; test: Cytotoxicity against Homo sapiens (human) MCF7 cells assessed as cell viability at 3.125 ug/ml after 48 hr by MTT assay relative to control; format: functional; conditions: MCF7, 48 h, read-out: Activity
# [8] = tested on: MCF7; test: Cytotoxicity against Homo sapiens (human) MCF7 cells assessed as cell viability at 12.5 ug/ml after 48 hr by MTT assay relative to control; format: functional; conditions: MCF7, 48 h, read-out: Activity
# [9] = Cytotoxicity against Homo sapiens (human) HCT cells assessed as cell viability at 6.25 ug/ml after 48 hr by MTT assay relative to control; format: functional; conditions: read-out: Activity
# [10] = tested on: HepG2; test: Cytotoxicity against Homo sapiens (human) HepG2 cells assessed as cell viability at 3.125 ug/ml after 48 hr by MTT assay relative to control; format: functional; conditions: HepG2, 48 h, read-out: Activity
# [11] = Cytotoxicity against Homo sapiens (human) HCT cells after 48 hr by MTT assay; format: functional, cell-based
# [12] = tested on: HepG2; test: Cytotoxicity against Homo sapiens (human) HepG2 cells after 48 hr by MTT assay; format: functional, cell-based; conditions: Homo sapiens, HepG2, 48 h; read-out: IC50
# [13] = tested on: MCF7; test: Cytotoxicity against Homo sapiens (human) MCF7 cells after 48 hr by MTT assay; format: functional, cell-based; conditions: MCF7, 48 h
# [14] = tested on: HepG2; test: Cytotoxicity against Homo sapiens (human) HepG2 cells assessed as cell viability at 25 ug/ml after 48 hr by MTT assay relative to control; format: functional; conditions: HepG2, 48 h, read-out: Activity
# [15] = tested on: MCF7; test: Cytotoxicity against Homo sapiens (human) MCF7 cells assessed as cell viability at 25 ug/ml after 48 hr by MTT assay relative to control; format: functional; conditions: MCF7, 48 h, read-out: Activity
# [16] = tested on: HepG2; test: Cytotoxicity against Homo sapiens (human) HepG2 cells assessed as cell viability at 6.25 ug/ml after 48 hr by MTT assay relative to control; format: functional; conditions: HepG2, 48 h, read-out: Activity
# [17] = Cytotoxicity against Homo sapiens (human) HCT cells assessed as cell viability at 12.5 ug/ml after 48 hr by MTT assay relative to control; format: functional; conditions: read-out: Activity
# [18] = tested on: HepG2; test: Cytotoxicity against Homo sapiens (human) HepG2 cells assessed as cell viability at 50 ug/ml after 48 hr by MTT assay relative to control; format: functional; conditions: HepG2, 48 h, read-out: Activity
# [19] = Cytotoxicity against Homo sapiens (human) HCT cells assessed as cell viability at 3.125 ug/ml after 48 hr by MTT assay relative to control; format: functional; conditions: read-out: Activity
# [20] = tested on: MCF7; test: Cytotoxicity against Homo sapiens (human) MCF7 cells assessed as cell viability at 50 ug/ml after 48 hr by MTT assay relative to control; format: functional; conditions: MCF7, 48 h, read-out: Activity
# [21] = Cytotoxicity against Homo sapiens (human) HCT cells assessed as cell viability at 1.56 ug/ml after 48 hr by MTT assay relative to control; format: functional; conditions: read-out: Activity
Compound,viability at 50 µg/mL [1],viability at 1.56 µg/mL [2],viability at 6.25 µg/mL [3],viability at 12.5 µg/mL [4],viability at 25 µg/mL [5],viability at 1.56 µg/mL [6],viability at 3.125 µg/mL [7],viability at 12.5 µg/mL [8],viability at 6.25 µg/mL [9],viability at 3.125 µg/mL [10],IC50 [11],IC50 [12],IC50 [13],viability at 25 µg/mL [14],viability at 25 µg/mL [15],viability at 6.25 µg/mL [16],viability at 12.5 µg/mL [17],viability at 50 µg/mL [18],viability at 3.125 µg/mL [19],viability at 50 µg/mL [20],other results
N#CC1=C(/N=C/c2ccccc2)Oc2c(ccc3cccnc23)C1c1ccc(Cl)cc1 (stereo not given),9.13%,56.1%,40.8%,37.9%,11.6%,55%,48.3%,37.2%,19.4%,48.9%,0.6 µg/mL,2.8 µg/mL,2.8 µg/mL,31.4%,33.3%,42.5%,14.8%,18.6%,30.2%,26.5%,viability at 1.56 µg/mL [21]: 38.5%
CC(=O)NC1=C(C#N)C(c2ccc(Cl)cc2)c2ccc3ccc(C)nc3c2O1 (stereo not given),22%,100%,76.8%,60.2%,42.5%,96.3%,86.5%,68.7%,77.5%,89.7%,14.6 µg/mL,17.8 µg/mL,38.6 µg/mL,35.9%,54%,78.6%,53.3%,23.8%,85.2%,46.2%,viability at 1.56 µg/mL [21]: 96.4%
CC(=O)NC1=C(C#N)C(c2ccc(Br)cc2)c2ccc3ccc(C)nc3c2O1 (stereo not given),22.5%,98.8%,65.8%,68.6%,44.5%,94.8%,79.9%,51.2%,86.8%,90.7%,21.3 µg/mL,26.5 µg/mL,13.5 µg/mL,51.2%,32.1%,81.6%,71.8%,32.6%,95.1%,23.4%,viability at 1.56 µg/mL [21]: 99.8%
Nc1ncnc2c1C(c1ccc(Cl)cc1)c1ccc3cccnc3c1O2 (stereo not given),26.4%,94.4%,81.2%,73.3%,42%,100%,94.5%,75.8%,74.6%,90.4%,19.2 µg/mL,> 50 µg/mL,44.6 µg/mL,67.6%,68.8%,83.3%,62.1%,64.3%,78.6%,45.4%,viability at 1.56 µg/mL [21]: 83.1%
Cc1ccc2ccc3c(c2n1)Oc1ncnc(N)c1C3c1ccc(Cl)cc1 (stereo not given),41.6%,68.3%,94.5%,43.7%,51.1%,100%,97.3%,89.2%,90.5%,60.2%,26.4 µg/mL,6.3 µg/mL,> 50 µg/mL,37%,81.7%,50.8%,78.9%,28.3%,98.8%,70.2%,viability at 1.56 µg/mL [21]: 100%
